# Measurements taken from patent US20210283056A1, “COMPOSITIONS FOR THERAPEUTICS PRESCREENING” (BARCODE DIAGNOSTICS LTD., priority 2018, published 2021).
# Read-outs that look alike come from different tables or passages of the source.
# Legend:
# [1] = system: 4T1 derived cancers and metastases; conditions: cited from earlier work; for Effect on tumor growth: Kiew et al., 2012
# [2] = system: Cells growing in culture; assay: Barcode quantification by Real Time PCR, dead vs. live cells; format: cell-based
# Description: Cells growing in culture were treated with the liposome mixes and 48 hours after exposure the cell were subjected to viability assay. Dead cells from each study group (in triplicates) were first pelleted by centrifugation of supernatant and kept at −20 C until further analysis. Fresh medium supplemented with 10% Presto Blue Reagent (ThermoFisher Scientific) was added to cells and incubated at 37 C for about 90 minutes. 100 ul of each well was transferred to a black 96 wells plate and Fluorescence was recorded ([…]). Viability was calculated as Fluorescence of each sample relative to fluorescence of non-treated cells. Both mixes killed a similar amount of cells. Immediately following the viability assay, adherent cells were detached by addition of trypsin to the wells. Barcode analysis by Real Time PCR was performed as follows. The different barcodes were analyzed using a ThermoFisher Scientific Quantstudiol PCR System. The assay was run with TaqMan Fast Advanced master mix (ThermoFisher Scientific), primers (IDT) and a barcode specific probe labeled on the 5′ end with fluorescent FAM dye and on its 3′ end with a nonfluorescent quencher linked to a Minor Groove Binder (MGB) (ThermoFisher Scientific). […] After preparation of all dilutions, Real Time PCR was used to validate the standard curve. A reaction was run for all barcodes together. Reaction settings were as follow: 2 μL of sample was run in a Real Time Quantstudiol PCR instrument, using fast template protocol. Each sample was run in duplicate. Each barcode tested was compared to a standard curve run on the same plate. Each barcode reaction comprised at least 4 NTCs. In the Set Up, target (barcode tested), task (sample=Unknown/Standard/NTC), name and biological group were assigned to each sample. […] Analysis calculated average amount of barcode copies between replicate samples. This quantity was obtained for 2 μl of sample (volume of sample in RT-PCR reaction) and was adjusted to the final volume of the sample. The ratio of each barcode found in dead vs. live cells was calculated.
# [3] = system: triple negative breast cancer tumors; assay: Barcode analysis in live and dead tumor cells after injection of liposome mixes; format: in vivo, BALB/c female mice; conditions: 5%
# Source text: FIGS. 1A-D: Detection of barcodes from liposome mixes with equal relative drug concentrations. […] Potency of the drugs was defined as the ratio of the amount of a barcode in dead cells to the amount of that barcode in live cells. (1D) A bar chart showing fluorescence from dead cells after treatment with two mixes of liposomes.
# Each drug has its own specific effective therapeutic dose (ETD), and in order to test efficacy it is reasonable that each liposome mix (a mix of all three types of liposomes to be injected together) should have the same relative amount of each drug. That is, in order to determine an ideal dose, batches of mixed liposomes were generated in which all three drugs were present in a concentration that was either 5%, 1% or 0.1% of the effective therapeutic dose. Table 2 provides the amounts (in ul) of each liposome batch that were added to the mix in order to provide each total dose.
# Cell from a triple negative breast cancer tumor were transplanted to the fat pad of BALB/c female mice and allowed to grow to form tumors in the mice. The mice were separated into 3 groups and then each group was injected with the 5%, 1% or 0.1% liposome mixes. 48 hours post injection the tumors were excised, and live/dead cell analysis was performed by FACS, followed by barcode analysis in live and dead cells separately.
# [4] = first batch of liposomes (equal liposome number)
SMILES,Effect on tumor growth ([1]; first couple of days of treatment),Effect on tumor growth ([1]; later time points),"Effective at killing the cells [2, 4]","Effectiveness relative to the other two drugs ([3]; 1% or 0.1% mixes, patent regards it as likely artifact)","Potency (barcode in dead cells to live cells) ([3]; 1% or 0.1% of ETD liposome mixes, 48 hours post injection)",Sensitivity of 4T1 derived cancers and metastases ([1]; reported),Resistance of 4T1 cells ([1]; reported),Effective at killing the cells ([2]; second batch of liposomes (equal relative drug concentration))
Nc1ccn([C@@H]2O[C@H](CO)[C@@H](O)C2(F)F)c(=O)n1 [Gemcitabine],retards tumor growth,not be effective,effective,> 10 fold,most effective treatment,,,
N.N.[Cl][Pt][Cl] [cisplatin],,,,,,highly sensitive,,
COc1cccc2c1C(=O)c1c(O)c3c(c(O)c1C2=O)C[C@@](O)(C(=O)CO)C[C@@H]3O[C@H]1C[C@H](N)[C@H](O)[C@H](C)O1 [doxorubicin],,,effective,,,less so,become resistant,effective
